In ChEMBL document CHEMBL3526020, “Significance of peptide transporter 1 in the intestinal permeability of valacyclovir in wild-type and PepT1 knockout mice” (Drug Metab Dispos, 2013):

How the values were obtained:
Plasma [1] = test: Drug level in mouse portal vein plasma treated with valacyclovir at 100 uM by HPLC analysis; assay type: ADME, cell-free
[2] = AUC (0 to 180 mins) in wild type mouse treated with 25 nmol/g, po of valacyclovir; assay type: ADME, organism-based; design: time < 3 hr, dose 25 nmol/g, route oral; conditions: plasma
[3] = Tmax in wild type mouse treated with 25 nmol/g, po of valacyclovir; assay type: ADME, organism-based; conditions: in vivo
[4] = Chemical stability of the compound; assay type: physicochemical
[5] = Cmax in wild type mouse treated with 25 nmol/g, po of valacyclovir; assay type: ADME, organism-based; design: dose 25 nmol/g, route oral; conditions: in vivo
[6] = Effective permeability of the compound in PepT1 knockout mouse jejunum at 100 uM by HPLC analysis; assay type: ADME, tissue-based; conditions: read-out: Peff
[7] = Tmax in PepT1 knockout mouse treated with 25 nmol/g, po of valacyclovir; assay type: ADME, organism-based; conditions: in vivo
[8] = AUC (0 to 180 mins) in PepT1 knockout mouse treated with 25 nmol/g, po of valacyclovir; assay type: ADME, organism-based; design: time < 3 hr, dose 25 nmol/g, route oral; conditions: plasma
[9] = Cmax in PepT1 knockout mouse treated with 25 nmol/g, po of valacyclovir; assay type: ADME, organism-based; design: dose 25 nmol/g, route oral; conditions: in vivo
PepT1 (SLC15A1) [10] = target: T1, PepT1 (SLC15A1) (Mus musculus, UniProt Q9JIP7); test: Effective permeability of the compound assessed as PepT1-mediated drug uptake in wild type mouse jejunum at 100 uM by HPLC analysis; assay type: ADME; conditions: read-out: Peff
T1 sequence (Q9JIP7 whole entry): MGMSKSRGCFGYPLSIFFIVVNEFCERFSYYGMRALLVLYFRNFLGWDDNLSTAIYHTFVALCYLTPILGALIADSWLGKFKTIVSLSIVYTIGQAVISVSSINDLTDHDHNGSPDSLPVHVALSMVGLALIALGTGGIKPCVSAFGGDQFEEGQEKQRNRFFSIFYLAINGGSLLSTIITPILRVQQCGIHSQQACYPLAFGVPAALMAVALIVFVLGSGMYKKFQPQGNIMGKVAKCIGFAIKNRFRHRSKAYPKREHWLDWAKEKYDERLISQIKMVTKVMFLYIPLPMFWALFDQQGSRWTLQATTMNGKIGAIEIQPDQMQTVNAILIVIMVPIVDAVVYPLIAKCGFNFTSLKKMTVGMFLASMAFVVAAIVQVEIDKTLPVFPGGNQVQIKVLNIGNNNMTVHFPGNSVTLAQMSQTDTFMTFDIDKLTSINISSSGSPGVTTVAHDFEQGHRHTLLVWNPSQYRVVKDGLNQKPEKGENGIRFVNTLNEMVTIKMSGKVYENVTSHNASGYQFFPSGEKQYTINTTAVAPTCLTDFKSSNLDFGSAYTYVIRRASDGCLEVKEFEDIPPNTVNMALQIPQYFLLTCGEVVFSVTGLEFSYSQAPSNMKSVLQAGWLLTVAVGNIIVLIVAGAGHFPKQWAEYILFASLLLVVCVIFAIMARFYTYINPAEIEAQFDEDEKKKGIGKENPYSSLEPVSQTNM

Jejunum [11] = test: (§1) Drug uptake in wild type mouse jejunum at 0.01 to 50 mM by nonlinear Michaelis-Menten equation analysis; assay type: ADME, tissue-based
[12] = as §1; assay type: ADME, tissue-based; conditions: mouse, jejunum
Jejunum [13] = test: Drug uptake in wild type mouse jejunum at 100 uM at pH 6.5 by HPLC analysis in presence of PepT1 substrate cefadroxil; assay type: ADME, tissue-based; conditions: in vivo, pH 6.5, 100 µM
Ileum [14] = test: Drug degradation in mouse ileum at 100 uM by chromatographic analysis; assay type: ADME, tissue-based
PepT1 (SLC15A1) [15] = target: T1, PepT1 (SLC15A1); test: Effective permeability of the compound assessed as PepT1-mediated drug uptake in wild type mouse colon at 100 uM by HPLC analysis; assay type: ADME; conditions: not told, read-out: Peff
[16] = Drug uptake in human Caco2 cells; assay type: ADME, cell-based; conditions: Caco-2 cells
[17] = Permeability of the compound in human jejunum; assay type: ADME, tissue-based; conditions: read-out: permeability
Jejunum [18] = test: Drug uptake in wild type mouse jejunum at 100 uM at pH 6.5 by HPLC analysis in presence of PhT1/2 substrate L-histidine; assay type: ADME, tissue-based; conditions: in vivo, pH 6.5, 100 µM
Jejunum [19] = test: Drug uptake in wild type mouse jejunum at 100 uM at pH 6.5 by HPLC analysis in presence of PepT1 substrate GlySar; assay type: ADME, tissue-based; conditions: in vivo, pH 6.5, 100 µM
PepT1 (SLC15A1) [20] = target: T1, PepT1 (SLC15A1); test: Effective permeability of the compound assessed as PepT1-mediated drug uptake in wild type mouse duodenum at 100 uM by HPLC analysis; assay type: ADME; conditions: read-out: Peff
[21] = Drug uptake in rat jejunum; assay type: ADME, tissue-based
Jejunum [22] = test: Effective permeability of the compound in PepT1 knockout mouse jejunum at 100 uM by HPLC analysis relative to wild type mouse; assay type: ADME, tissue-based
Jejunum [23] = test: Drug uptake in wild type mouse jejunum at 100 uM at pH 6.5 by HPLC analysis in presence of organic cation substrate TEA; assay type: ADME, tissue-based; conditions: in vivo, pH 6.5, 100 µM
Colon [24] = test: Effective permeability of the compound in PepT1 knockout mouse colon at 100 uM by HPLC analysis relative to wild type mouse; assay type: ADME
Jejunum [25] = test: Drug uptake in wild type mouse jejunum at 100 uM at pH 6.5 by HPLC analysis in presence of ATB0,+ substrate L-valine; assay type: ADME, tissue-based; conditions: in vivo, pH 6.5, 100 µM
Plasma [26] = test: Prodrug activation in mouse portal vein plasma assessed as formation of acyclovir at 100 uM by HPLC analysis; assay type: cell-free
Duodenum [27] = test: Effective permeability of the compound in PepT1 knockout mouse duodenum at 100 uM by HPLC analysis relative to wild type mouse; assay type: ADME
Duodenum [28] = test: Drug degradation in mouse duodenum at 100 uM by chromatographic analysis; assay type: ADME, tissue-based
Colon [29] = test: Drug degradation in mouse colon at 100 uM by chromatographic analysis; assay type: ADME, tissue-based
Jejunum [30] = test: Drug uptake in wild type mouse jejunum at 100 uM at pH 6.5 by HPLC analysis in presence of organic anion substrate PAH; assay type: ADME, tissue-based; conditions: in vivo, pH 6.5, 100 µM
PepT1 (SLC15A1) [31] = target: T1, PepT1 (SLC15A1); test: Effective permeability of the compound assessed as PepT1-mediated drug uptake in wild type mouse ileum at 100 uM by HPLC analysis; assay type: ADME, tissue-based; conditions: read-out: Peff
Ileum [32] = test: Effective permeability of the compound in PepT1 knockout mouse ileum at 100 uM by HPLC analysis relative to wild type mouse; assay type: ADME, tissue-based
Jejunum [33] = test: Drug degradation in mouse jejunum at 100 uM by chromatographic analysis; assay type: ADME, tissue-based
[34] = Permeability in mouse jejunum; assay type: ADME, tissue-based; conditions: read-out: permeability
[35] = substrate: CC(C)[C@H](N)C(=O)OCCOCn1cnc2c(=O)[nH]c(N)nc21; test: Permeability of the compound assessed as human PepT1-mediated drug uptake in CHO cells at pH 5.5; assay type: ADME, cell-based
[36] = substrate: CC(C)[C@H](N)C(=O)OCCOCn1cnc2c(=O)[nH]c(N)nc21; test: Permeability of the compound assessed as human PepT1-mediated drug uptake in Xenopus oocytes; assay type: ADME, cell-based
[37] = substrate: CC(C)[C@H](N)C(=O)OCCOCn1cnc2c(=O)[nH]c(N)nc21; test: Permeability of the compound assessed as human PepT1-mediated drug uptake in MDCK cells; assay type: ADME, cell-based
[38] = substrate: CC(C)[C@H](N)C(=O)OCCOCn1cnc2c(=O)[nH]c(N)nc21; test: Permeability of the compound assessed as human PepT1-mediated drug uptake in CHO cells at pH 7.9; assay type: ADME, cell-based

Nc1nc2c(ncn2COCCO)c(=O)[nH]1 [ACYCLOVIR]
Drug metabolism (Plasma [1]): metabolite_detected | AUC(0-t) at 3 h [2]: 12.3 µM·h | Tmax [3]: 25 min | Stability [4]: < 5% | Cmax [5]: 9.3 µM | Papp at 100 µM [6]: 7.4 ×10⁻⁶ cm/s | Tmax [7]: 70 min | AUC(0-t) at 3 h [8]: 5.02 µM·h | Cmax [9]: 2 µM | Papp at 100 µM (PepT1 (SLC15A1) [10]): 4 ×10⁻⁶ cm/s

CC(C)[C@H](N)C(=O)OCCOCn1cnc2c(=O)nc(N)[nH]c21.Cl [VALACYCLOVIR HYDROCHLORIDE]
Kd (Jejunum [11]): 3 ×10⁻⁵ cm/s | Drug uptake (Jejunum [11]; mouse, in vivo, 50000 µM): 82% | Vmax (Jejunum [11]; mouse, in vivo, 50000 µM): 1.4 nmol/cm2/s | Km at up to 50000 µM [12]: 10.2 mM | Drug uptake (Jejunum [13]): Not Active | Stability (Ileum [14]): Unstable | Papp at 100 µM (PepT1 (SLC15A1) [15]): 27 ×10⁻⁶ cm/s | Km [16]: 1.6 mM | Papp [17]: 166 ×10⁻⁶ cm/s | Drug uptake (Jejunum [18]): Active | Drug uptake (Jejunum [19]): Not Active | Papp at 100 µM (PepT1 (SLC15A1) [20]): 240 ×10⁻⁶ cm/s | Km [21]: 1.2 mM | Stability [4]: < 5% | Peff (Jejunum [22]): < 10% | Drug uptake (Jejunum [23]): Active | Peff (Colon [24]): < 10% | Drug uptake (Jejunum [25]): Active | Drug metabolism (Plasma [26]): metabolite_detected | Peff (Duodenum [27]): < 10% | Stability (Duodenum [28]): Unstable | Stability (Colon [29]): Unstable | Drug uptake (Jejunum [30]): Active | Papp at 100 µM (PepT1 (SLC15A1) [31]): 210 ×10⁻⁶ cm/s | Papp at 100 µM (PepT1 (SLC15A1) [10]): 170 ×10⁻⁶ cm/s | Peff (Ileum [32]): < 10% | Stability (Jejunum [33]): Unstable

COCCc1ccc(OCC(O)CNC(C)C)cc1 (stereo not drawn) [METOPROLOL]
Papp [17]: 134 ×10⁻⁶ cm/s | Papp [34]: 50 ×10⁻⁶ cm/s

B1: Solute carrier family 15 member 1 (Homo sapiens) (protein)
chain: MGMSKSHSFFGYPLSIFFIVVNEFCERFSYYGMRAILILYFTNFISWDDNLSTAIYHTFVALCYLTPILGALIADSWLGKFKTIVSLSIVYTIGQAVTSVSSINDLTDHNHDGTPDSLPVHVVLSLIGLALIALGTGGIKPCVSAFGGDQFEEGQEKQRNRFFSIFYLAINAGSLLSTIITPMLRVQQCGIHSKQACYPLAFGVPAALMAVALIVFVLGSGMYKKFKPQGNIMGKVAKCIGFAIKNRFRHRSKAFPKREHWLDWAKEKYDERLISQIKMVTRVMFLYIPLPMFWALFDQQGSRWTLQATTMSGKIGALEIQPDQMQTVNAILIVIMVPIFDAVLYPLIAKCGFNFTSLKKMAVGMVLASMAFVVAAIVQVEIDKTLPVFPKGNEVQIKVLNIGNNTMNISLPGEMVTLGPMSQTNAFMTFDVNKLTRINISSPGSPVTAVTDDFKQGQRHTLLVWAPNHYQVVKDGLNQKPEKGENGIRFVNTFNELITITMSGKVYANISSYNASTYQFFPSGIKGFTISSTEIPPQCQPNFNTFYLEFGSAYTYIVQRKNDSCPEVKVFEDISANTVNMALQIPQYFLLTCGEVVFSVTGLEFSYSQAPSNMKSVLQAGWLLTVAVGNIIVLIVAGAGQFSKQWAEYILFAALLLVVCVIFAIMARFYTYINPAEIEAQFDEDEKKNRLEKSNPYFMSGANSQKQM
Km [35]: 7.4 mM | Km [36]: 5.9 mM | Km [37]: 3.8 mM | Km [38]: 2.2 mM
